Entries after “also recorded” stand apart in the source; their conditions may differ.
Assays:
Type in all cases: cell-based
[1] = test system: primary culture of bovine mammary epithelial cells; experiment: Intracellular triglyceride content in cell lysates (lipid extraction, HPLC-ELSD); settings: 48 hours, cell lysates
Description: For all the experiments, primary culture of bovine mammary epithelial cells were used. The cells were isolated from 3 lactating Holstein cows according to an established protocol (Cohen et al., 2015 supra). Study protocols were in compliance with the regulations of the Israeli Ministry of Health, under the supervision of the Department for Control of Animal Products, State of Israel Ministry of Agriculture Rural Development Veterinary Services and Animal Health. Certificate Nu: #80. After isolation, 60,000 cells were plated in a 35-mm plastic dish on glass cover slips for all florescence staining experiments. For production analysis, 150,000 cells were plated in a 60-mm plastic dish for lipids, protein, and lactose extraction. Oxygen consumption assay was performed by using Seahorse system (Agilent, USA); cells were plated in 24-well plate (20,000 cells/well) and incubated with DMEM/F12, with 0.15% (v/v) bovine serum albumin and insulin (1 μg/ml), hydrocortisone (0.5 μg/ml) and prolactin (1 μg/ml) for 48 h to induce lactogenic response. Then cells were treated with three different P. lentiscus extracts: ethyl acetate, hexane and chloroform, according to the protocol that was used before (Azaizeh et al., 2013). The extracts were diluted with DMEM/F12 medium supplemented with Dimethyl Sulfoxide (DMSO) in a final concentration of 0.1% for better dissolution of the extractions. […] The treatment was given in the presence of insulin (1 μg/ml), hydrocortisone (0.5 μg/ml) and prolactin (1 μg/ml). […] Otherwise, cells were fixed for florescence staining or plates taken to seahorse for oxygen consumption rate measurement.
After treatment, total lipids were extracted from harvested cells and from collected medium. The medium or the cells were diluted by 20 times Folch reagent (Chloroform-Methanol 2:1). After overnight incubation with cold extraction at 4° C., the upper phase was removed, and the lower phase was filtered through glass wool. Samples were then evaporated under a nitrogen stream at 65° C., diluted in 100 μl chloroform:methanol (97:3, v/v) and stored at −20° C. until injection for HPLC analysis. […] Quantification was performed against external standard curves and expressed as μg/per 10^6 live cells or as weight % out of the sum of phospholipids (μg) in the sample. Live cell number was determined with a hemocytometer after 5 min of trypan blue staining. […]
Cells were incubated with 360 uM oleic acid (O) with or without 1.2 mM beta hydroxybutyrate (BHBA, H). The concentration of triglyceride was measured in cell lysates.

[2] = test system: primary culture of bovine mammary epithelial cells; experiment: Triglyceride / fat secreted to the medium by mammary epithelial cells (Nile red staining, HPLC-ELSD); settings: 100 uM oleic acid in the presence of BSA; 24 h; Nile red
Description: For all the experiments, primary culture of bovine mammary epithelial cells were used. The cells were isolated from 3 lactating Holstein cows according to an established protocol (Cohen et al., 2015 supra). Study protocols were in compliance with the regulations of the Israeli Ministry of Health, under the supervision of the Department for Control of Animal Products, State of Israel Ministry of Agriculture Rural Development Veterinary Services and Animal Health. Certificate Nu: #80. After isolation, 60,000 cells were plated in a 35-mm plastic dish on glass cover slips for all florescence staining experiments. For production analysis, 150,000 cells were plated in a 60-mm plastic dish for lipids, protein, and lactose extraction. […] After 24 h of incubation, medium was collected for triglyceride and phospholipid quantification, and cells were harvested for cell counting, lipid, lactose or protein extraction. […]
After treatment, total lipids were extracted from harvested cells and from collected medium. […] Quantification was performed against external standard curves and expressed as μg/per 10^6 live cells or as weight % out of the sum of phospholipids (μg) in the sample. Live cell number was determined with a hemocytometer after 5 min of trypan blue staining. […]

[3] = test system: primary culture of bovine mammary epithelial cells; experiment: Intracellular lipid droplets fluorescence staining (Nile red / DAPI); settings: primary MEC; Nile red / Dapi staining (FIG. 2)
Description: For all the experiments, primary culture of bovine mammary epithelial cells were used. The cells were isolated from 3 lactating Holstein cows according to an established protocol (Cohen et al., 2015 supra). Study protocols were in compliance with the regulations of the Israeli Ministry of Health, under the supervision of the Department for Control of Animal Products, State of Israel Ministry of Agriculture Rural Development Veterinary Services and Animal Health. Certificate Nu: #80. After isolation, 60,000 cells were plated in a 35-mm plastic dish on glass cover slips for all florescence staining experiments. […] After 24 h of incubation, medium was collected for triglyceride and phospholipid quantification, and cells were harvested for cell counting, lipid, lactose or protein extraction. […] Cover slips were then rinsed four times with PBS and mounted with fluorescence mounting medium (Dako, North America Inc., Carpinteria, CA). Slides were visualized with an Olympus BX40 fluorescence microscope equipped with an Olympus DP73 digital camera using CellSens Entry software (version 1.7, Olympus). Lipid droplet diameter was measured using ImageJ software (version 1.48, NIH, Bethesda, MD). […] The effect of oleic acid on accumulation of fat in primary culture of mammary epithelial cells was determined using Nile red staining (red). […]

CC(O)CC(=O)O (stereo not drawn) [BHBA, β-hydroxybutirate]
triglyceride content in the cells ([1]; 1.2 mM BHBA added to 360 uM oleic acid): ~90 ug/10^6 cells

CCCCCCCC/C=C\CCCCCCCC(=O)O [oleic acid]
fat content (triglyceride) in medium collected from cells compared with control [2]: higher; also recorded: increases | oleic acid concentration at which toxic effect is evident [3]: over 1 mM | increase of triglyceride content in the cells ([1]; 360 uM oleic acid): 4 fold

Reference: patent US20230416679A1, “METHODS AND COMPOSITIONS FOR IN-VITRO AUGMENTATION OF MILK PRODUCTION FROM MAMMARY EPITHELIAL CELLS” (Wilk Technologies International Ltd., priority 2021, published 2023)
